Like-named read-outs stand apart in the source and are kept apart here.
Tests used:
Assay in all cases: Test A postemergence
Format in all cases: in vivo
[1] = test system: Galium (catchweed bedstraw, Galium aparine); conditions: Galium, post-emergence, 240 h; for pest or weed control at 125 g/ha: 125 g ai/ha, postemergence; for pest or weed control at 31 g/ha: Postemergence, 31 g ai/ha, visual injury after approx. 10 d, 0 to 100 scale, 0 no effect, 100 complete control
In short: (§1)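 Compounds were formulated in a non-phytotoxic solvent mixture with surfactant and applied as a preemergence directed soil spray after seeding, or sprayed postemergence over plants 2 to 10 cm tall at the one- to two-leaf stage. Evaluation after about 10 d compared treated with untreated controls, using a scale from 0 (no effect) to 100 (complete control).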

[2] = test system: corn (Zea mays); conditions: Zea mays, post-emergence, 240 h; for Corn plant response rating (crop injury, 0 = no effect, 100 = complete kill) at 125 g/ha / plant injury at 125 g/ha: 125 g ai/ha, postemergence; for Corn plant response rating (crop injury, 0 = no effect, 100 = complete kill) at 125 g/ha: visual injury after approximately 10 d, 0 to 100 scale (0 no effect, 100 complete control); for plant injury at 125 g/ha: visual injury rating after approximately 10 d, read-out: Corn plant response rating (0 to 100 scale, 0 no effect, 100 complete control); for Corn plant response rating (crop injury, 0 = no effect, 100 = complete kill) at 31 g/ha: Postemergence, 31 g ai/ha, visual injury after approx. 10 d, 0 to 100 scale, 100 complete control
In short: as §1

[3] = test system: pigweed (Amaranthus retroflexus); conditions: Amaranthus retroflexus, post-emergence, 240 h; for pest or weed control at 125 g/ha: 125 g ai/ha, postemergence; for pest or weed control at 31 g/ha: Postemergence, 31 g ai/ha, visual injury after approx. 10 d, 0 to 100 scale, 0 no effect, 100 complete control
In short: as §1

[4] = test system: ryegrass, Italian (Italian ryegrass, Lolium multiflorum); conditions: Lolium multiflorum, post-emergence, 240 h; for pest or weed control at 125 g/ha: 125 g ai/ha, postemergence; for pest or weed control at 31 g/ha: Postemergence, 31 g ai/ha, visual injury after approx. 10 d, 0 to 100 scale, 0 no effect, 100 complete control
In short: as §1

[5] = test system: wheat (Triticum aestivum); conditions: Triticum aestivum, post-emergence, 240 h; for plant injury at 125 g/ha: 125 g ai/ha, postemergence; for plant injury at 31 g/ha: Postemergence, 31 g ai/ha, visual injury after approx. 10 d, 0 to 100 scale, 0 no effect, 100 complete control
In short: as §1

[6] = visual injury after approximately 10 d, 0 to 100 scale (0 no effect, 100 complete control), read-out: Plant response rating, Galium
[7] = visual injury after approximately 10 d, 0 to 100 scale (0 no effect, 100 complete control), read-out: Plant response rating, Pigweed
[8] = visual injury after approximately 10 d, 0 to 100 scale (0 no effect, 100 complete control), read-out: Plant response rating, Ryegrass, Italian
[9] = visual injury after approximately 10 d, 0 to 100 scale (0 no effect, 100 complete control), read-out: Plant response rating, Wheat
[10] = visual injury rating after approximately 10 d, read-out: Galium plant response rating (0 to 100 scale, 0 no effect, 100 complete control)
[11] = read-out: Plant response rating, Galium
[12] = visual injury rating after approximately 10 d, read-out: Pigweed plant response rating (0 to 100 scale, 0 no effect, 100 complete control)
[13] = read-out: Plant response rating, Pigweed
[14] = visual injury rating after approximately 10 d, read-out: Ryegrass, Italian plant response rating (0 to 100 scale, 0 no effect, 100 complete control)
[15] = read-out: Plant response rating, Ryegrass, Italian
[16] = visual injury rating after approximately 10 d, read-out: Wheat plant response rating (0 to 100 scale, 0 no effect, 100 complete control)
[17] = read-out: Plant response rating, Wheat

Q: For `CN1C[C@H](c2cc(F)cc(F)c2)[C@@H](C(=O)Nc2c(F)cccc2F)C1=O` [Compound 759], which pest or weed control at 125 g/ha [1, 6] is on record?
A: 0%

Q: And the Corn plant response rating (crop injury, 0 = no effect, 100 = complete kill) at 125 g/ha [2]?
A: 0%

Q: And the pest or weed control at 125 g/ha [3, 7]?
A: 0%

Q: What about the pest or weed control at 125 g/ha [4, 8] of the same compound?
A: 0%

Q: What about the plant injury at 125 g/ha [5, 9] of the same compound?
A: 0%

Q: What does the source list for `CCc1ccc([C@H]2CNC(=S)[C@@H]2C(=O)Nc2cccc(F)c2C)cc1` [Compound 761]?
A: pest or weed control at 125 g/ha [1, 6]: 0%; Corn plant response rating (crop injury, 0 = no effect, 100 = complete kill) at 125 g/ha [2]: 0%; pest or weed control at 125 g/ha [3, 7]: 0%; pest or weed control at 125 g/ha [4, 8]: 0%; plant injury at 125 g/ha [5, 9]: 0%

Q: `CCc1ccc([C@H]2CNC(=S)[C@@H]2C(=O)Nc2cccc(F)c2F)cc1` [Compound 762] was tested. Which pest or weed control at 125 g/ha [1, 6] did it give?
A: 0%

Q: What about the Corn plant response rating (crop injury, 0 = no effect, 100 = complete kill) at 125 g/ha [2] of the same compound?
A: 0%

Q: What about the pest or weed control at 125 g/ha [3, 7] of the same compound?
A: 0%

Q: What about the pest or weed control at 125 g/ha [4, 8] of the same compound?
A: 0%

Q: And the plant injury at 125 g/ha [5, 9]?
A: 0%

Q: Which results are given for `CCc1ccc([C@H]2CNC(=S)[C@@H]2C(=O)Nc2ccccc2SC)cc1` [Compound 763]?
A: pest or weed control at 125 g/ha [1, 6]: 0%; Corn plant response rating (crop injury, 0 = no effect, 100 = complete kill) at 125 g/ha [2]: 0%; pest or weed control at 125 g/ha [3, 7]: 0%; pest or weed control at 125 g/ha [4, 8]: 0%; plant injury at 125 g/ha [5, 9]: 0%

Q: Which results are given for `O=C1NC[C@H](c2ccc3c(c2)OCO3)[C@H]1C(=O)Nc1ccccc1F` [Compound 767]?
A: pest or weed control at 125 g/ha [1, 6]: 0%; Corn plant response rating (crop injury, 0 = no effect, 100 = complete kill) at 125 g/ha [2]: 0%; pest or weed control at 125 g/ha [3, 7]: 0%; pest or weed control at 125 g/ha [4, 8]: 0%; plant injury at 125 g/ha [5, 9]: 0%

Q: Which results are given for `O=C1NC[C@H](c2ccc(OC(F)F)cc2)[C@H]1C(=O)Nc1ccccc1F` [Compound 778]?
A: pest or weed control at 125 g/ha [1, 6]: 60%; Corn plant response rating (crop injury, 0 = no effect, 100 = complete kill) at 125 g/ha [2]: 0%; pest or weed control at 125 g/ha [3, 7]: 10%; pest or weed control at 125 g/ha [4, 8]: 20%; plant injury at 125 g/ha [5, 9]: 0%

Q: What does the source list for `CC(F)(F)c1cccc([C@H]2CNC(=O)[C@@H]2C(=O)Nc2ccc(F)cc2F)c1` [Compound 781]?
A: pest or weed control at 125 g/ha [1, 6]: 60%; Corn plant response rating (crop injury, 0 = no effect, 100 = complete kill) at 125 g/ha [2]: 60%; pest or weed control at 125 g/ha [3, 7]: 0%; pest or weed control at 125 g/ha [4, 8]: 20%; plant injury at 125 g/ha [5, 9]: 50%

Q: How did the pest or weed control at 125 g/ha [1, 6] turn out when `CC(F)(F)c1cccc([C@H]2CNC(=O)[C@@H]2C(=O)Nc2ccccc2F)c1` [Compound 782] was run?
A: 70%

Q: And the Corn plant response rating (crop injury, 0 = no effect, 100 = complete kill) at 125 g/ha [2]?
A: 60%

Q: What about the pest or weed control at 125 g/ha [3, 7] of the same compound?
A: 0%

Q: What about the pest or weed control at 125 g/ha [4, 8] of the same compound?
A: 40%

Q: What about the plant injury at 125 g/ha [5, 9] of the same compound?
A: 60%

Q: How did the pest or weed control at 125 g/ha [1, 6] turn out when `O=C1NC[C@H](c2ccc3c(c2)CCO3)[C@H]1C(=O)Nc1cccc(F)c1F` [Compound 785] was run?
A: 50%

Q: What about the Corn plant response rating (crop injury, 0 = no effect, 100 = complete kill) at 125 g/ha [2] of the same compound?
A: 0%

Q: And the pest or weed control at 125 g/ha [3, 7]?
A: 0%

Q: And the pest or weed control at 125 g/ha [4, 8]?
A: 30%

Q: What about the plant injury at 125 g/ha [5, 9] of the same compound?
A: 0%

Q: How did the pest or weed control at 125 g/ha [1, 6] turn out when `Cc1cc([C@H]2CNC(=O)[C@@H]2C(=O)Nc2ccc(F)cc2F)ccc1Cl` [Compound 791] was run?
A: 60%

Q: And the Corn plant response rating (crop injury, 0 = no effect, 100 = complete kill) at 125 g/ha [2]?
A: 0%

Q: What about the pest or weed control at 125 g/ha [3, 7] of the same compound?
A: 0%

Q: What about the pest or weed control at 125 g/ha [4, 8] of the same compound?
A: 0%

Q: Which results are given for `O=C(Nc1cccc(F)c1F)[C@H]1C(=O)N(O)CC[C@@H]1c1ccc(F)cc1` [Compound 805]?
A: pest or weed control at 125 g/ha [1, 10]: 0%; pest or weed control at 31 g/ha [1, 11]: 0%; plant injury at 125 g/ha [2]: 0%; Corn plant response rating (crop injury, 0 = no effect, 100 = complete kill) at 31 g/ha [2]: 0%; pest or weed control at 125 g/ha [3, 12]: 0%; pest or weed control at 31 g/ha [3, 13]: 0%; pest or weed control at 125 g/ha [4, 14]: 0%; pest or weed control at 31 g/ha [4, 15]: 0%; plant injury at 125 g/ha [5, 16]: 0%; plant injury at 31 g/ha [5, 17]: 0%

Q: Which results are given for `CSc1ccccc1NC(=O)[C@H]1C(=O)N(C)CC[C@@H]1c1ccc2c(c1)OC(F)(F)O2` [Compound 814]?
A: pest or weed control at 125 g/ha [1, 10]: 0%; pest or weed control at 31 g/ha [1, 11]: 0%; plant injury at 125 g/ha [2]: 0%; Corn plant response rating (crop injury, 0 = no effect, 100 = complete kill) at 31 g/ha [2]: 0%; pest or weed control at 125 g/ha [3, 12]: 0%; pest or weed control at 31 g/ha [3, 13]: 0%; pest or weed control at 125 g/ha [4, 14]: 0%; pest or weed control at 31 g/ha [4, 15]: 0%; plant injury at 125 g/ha [5, 16]: 0%; plant injury at 31 g/ha [5, 17]: 0%
